Laboratory results taken from US6620844B2, “Method for reducing blood insulin levels by reducing in vivo cathepsin L activity” (NewMillennium Pharmaceutical, Inc., priority 2001, dated 2003).
“Also recorded” adds a separate entry of the source.

How the values were obtained:
[1] = test system: peroxisome proliferator-activated receptor-γ (PPAR-γ); test: PPAR-γ levels in human preadipocytes, Western blot; assay type: cell-based; conditions: human preadipocytes differentiated with inhibitor, FIG. 5
Description: FIG. 5. Inhibition of cathepsin L blocked the expression of PPAR-γ. Human preadipocytes were used and Western blot analysis was performed as in FIG. 4 instead of using mouse anti-human PPAR-γ monoclonal antibodies as the primary antibodies.
(§1) Human preadipocytes were initially cultured in MSCGM medium (BioWhitaker) at 37° C. and 5% CO2 for 7 to 12 days with 3-4 changes of media till complete confluence. Non-induced cells were kept in adipogenesis maintenance media containing 0.01 mg/ml of insulin, 0.05 units/ml of penicillin, 0.05 μg/ml of streptomycin, and 10% fetal bovine serum. To induce adipogenesis, complete confluent cells were cultured in adipogenesis induction medium containing 1 μM dexamethasone, 0.2 mM indomethacin, 0.01 mg/ml insulin, 0.5 mM 3-isobutyl-1-methyl-xanthine, 0.05 units/ml of penicillin, 0.05 μg/ml of streptomycin, and 10% fetal bovine serum in the presence and absence of protease inhibitors for 3 days followed by three days of culture in maintenance media. After three cycles of induction and maintenance, cells were cultured in maintenance media for additional 7 days with two changes of fresh media.
(§2) To evaluate the cell differentiation levels affected by aforementioned inhibitors, the levels of transcription factors CCAAT/enhancer-binding protein-α (C/EBP-α) as well as peroxisome proliferator-activated receptor-γ (PPAR-γ) from cells treated with and without inhibitors were measured. Both C/EBP-α and PPAR-γ are important adipocyte determination factors. Wu et al. (1999) Mol. Cell. 3:151-158; Tanaka et al. (1997) EMBO J. 16:7432-7443; and Tontonoz et al. (1994) Cell 79:1147-1156.

[2] = test system: insulin receptor β subunit; test: Insulin receptor turnover in human preadipocytes, Western blot; assay type: cell-based; conditions: 10 μM, human preadipocytes
Description: FIG. 2. […] Human preadipocytes were incubated with and without inhibitors indicated at different doses, lysed, separated onto 7% SDS-PAGE, and probed with goat anti-human insulin receptor β-subunit polyclonal antibodies. Both mature β subunit and its precursor were indicated.
as §1
(§3) After differentiation, cells were collected, and lysed into 1×RIPA buffer. Protein concentrations were determined using Bio-Rad Dc protein assay system according to the manufacturer (Bio-Rad, Hercules, Calif.). Equal amount of proteins were separated on 7% SDS-PAGE for detecting IR and IGF-1R, 12% SDS-PAGE for detecting cathepsins S, K, and L antigens. Both IR and IGF-1R primary polyclonal antibodies were raised from goat and all cathepsin antibodies were polyclonal antibodies raised from rabbit. The corresponding HRP-conjugated secondary antibodies were used for detections.
To test which cathepsin is involved in the IR turnover, human preadipocytes (BioWhittaker, Walkersville, Md.) were induced to become adipocytes in the presence and absence of inhibitors. Differentiated adipocytes expressed more IR than controls as previously reported. Pederson et al. (2000) Biochem. Biophys. Res. Commun. 276:162-168. Cathepsin B inhibitor (CA 074, 10 μM) and catepsin S inhibitor (CLIK 060, 2 μM) had no effect on either IR turnover or differentiation (FIGS. 2). […] The same is true when the blot was tested with insulin like growth factor I receptor (IGF-IR) antibodies (FIG. 3).

[3] = biological target: T1, cathepsin B (Mus musculus, UniProt P10605); test: Cysteine protease active site labeling in mouse peritoneal macrophages: cathepsin B; assay type: cell-based; conditions: 10 μM
T1 construct: endogenous in cells; host or cells: thioglycolate-elicited mouse peritoneal macrophages
Description: (§4) FIG. 1. Cysteine protease inhibition profile by synthetic inhibitors in mouse peritoneal macrophages. [^125I]-Z-Tyr-Ala-CHN2-labeled mouse peritoneal macrophages were lysed and separated onto 12% SDS-PAGE to visualize labeled active cathepsins. Doses and inhibitors used were all indicated.
(§5) Mouse peritoneal macrophages were generated by injecting mice with thioglycolate as described in Shi et al. (2000) J. Exp. Med. 191:[…]. After 3-4 days of incubation, peritoneal microphages were washed out using Tris-EDTA buffers containing 6 mM EDTA (pH 8.0). Cells were then seeded onto 24-well plates in DMEM with 10% FBS till complete spread. After cells were attached to the plates, different doses of inhibitors were added. After 2-3 hours of incubation, cells were labeled with [^125I]-Z-Tyr-Ala-CHN2 overnight at 37° C. to detect intracellular active cysteine proteases. Cells were lysed into 1× reducing protein sample buffer and separated onto 12% SDS-PAGE.
(§6) First, the synthetic small molecule compounds were tested for their selectivity toward different forms of cathepsin. Mouse peritoneal macrophages were cultured in the presence of selective inhibitors and cysteine protease active site labeling probe [^125I]-Z-Tyr-Ala-CHN2 (Sukhova et al., supra). […] In contrast, other inhibitors used had no effect on cathepsin B activity. […] Therefore, these inhibitors can be utilized to test if the aforementioned cathepsins play roles in the breakdown of insulin receptor (IR) or IR turnover.

[4] = test system: human preadipocytes; test: Human preadipocyte adipogenesis, oil-red staining; assay type: cell-based; conditions: 10 μM, human preadipocytes
Description: FIG. 6. Oil-red staining of human preadipocytes and adipocytes.
as §1
This hypothesis is further confirmed by oil-red staining of CLIK 148 or 195 treated preadipocytes (FIG. 6). In addition, inhibition of adiogenesis by these two inhibitors is dose dependent. Less than 50% of adipogenesis was blocked by 1 μM of such inhibitors. […] In contrast, 1 μM of CLIK 060, 1 or 10 μM of CA 074 had no effect on adipogenesis (data not shown). Therefore, these observations indicate that cathepsin L appears to play a more critical role than cathepsins S and K in adipogenesis by controlling insulin/IR complex turnover.

[5] = biological target: T2, cathepsin L (Mus musculus, UniProt P06797); test: Cysteine protease active site labeling in mouse peritoneal macrophages: cathepsin L; assay type: cell-based; conditions: 10 μM, mouse peritoneal macrophages
T2 construct: endogenous in cells; host or cells: thioglycolate-elicited mouse peritoneal macrophages
Description: as §4, §5, §6

[6] = test system: insulin like growth factor I receptor (IGF-IR); test: IGF-IR levels in human preadipocytes, Western blot; assay type: cell-based; conditions: 10 μM
Description: FIG. 3. […] Cells were treated as in FIG. 2. Western blot analysis was performed using goat anti-human IGF-1R polyclonal antibodies.
as §1, §3
To test which cathepsin is involved in the IR turnover, human preadipocytes (BioWhittaker, Walkersville, Md.) were induced to become adipocytes in the presence and absence of inhibitors. Differentiated adipocytes expressed more IR than controls as previously reported. Pederson et al. (2000) Biochem. Biophys. Res. Commun. 276:162-168. Cathepsin B inhibitor (CA 074, 10 μM) and catepsin S inhibitor (CLIK 060, 2 μM) had no effect on either IR turnover or differentiation (FIGS. 2). […]

[7] = test system: mouse 3T3-L1 cells; test: Mouse 3T3-L1 preadipocyte adipogenesis, oil-red staining; assay type: cell-based; conditions: 15 μM
Description: FIG. 9. Effect of cathepsin L inhibitor during mouse 3T3-L1 preadipocyte differentiation. Mouse 3T3-L1 cells were induced for adipogenesis. CLIK 148 (10 μM) was […] at different time points (days) during adipogenesis. Cells were stained with oil-red at the end of differentiation.
Mouse preadipocytes were differentiated as described in Patel and Lane (2000) J. Biol. Chem. 275:17653-17660. In brief, mouse 3T3-L1 cells were cultured in DMEM containing 10% calf serum till confluence at 37° C. with 10% CO2. After additional two days maintenance in the same media, cells were differentiated by adding 0.5 mM methylisobutylxanthine, 1 μM dexmethasone, 1 μg/ml insulin, and 10% FBS for two days in the presence and absence of protease inhibitors. Culture media were replaced with DMEM containing 1 μg/ml insulin and 10% FBS. After day 4 the cells were fed every other day with 10% FBS in DMEM without insulin. By days 7-8, cells were fully differentiated.
Similar phenotypes were observed using mouse preadipocytes 3T3-L1 (ATCC, Manassas, Va.). Both active cathepsins L and S were found in differentiated adipocytes (FIG. 8, days 8-11). However, levels of both enzyme increased after the differentiation, a phenomenon different from that of human preadipoicytes. […] Cathepsin K antigen was detected in preadipocytes but not adipocytes nor insulin treated cells (FIG. 10).

[8] = test system: CCAAT/enhancer-binding protein-α (C/EBP-α); test: C/EBP-α levels in human preadipocytes, Western blot; assay type: cell-based; conditions: human preadipocytes differentiated with inhibitor, FIG. 4
Description: FIG. 4. Inhibition of cathepsin L blocked the expression of CCAAT/enhancer-binding protein. Human preadipocytes were differentiated as in FIG. 2. A 10% gel was used to perform Western blot analysis using goat anti-human C/EBP-α polyclonal antibodies and the blot was detected using the corresponding HRP-conjugated secondary antibodies.
as §1, §2

[9] = biological target: T3, cathepsin K (Mus musculus, UniProt P55097); test: Cysteine protease active site labeling in mouse peritoneal macrophages: cathepsin K; assay type: cell-based; conditions: 10 μM
T3 construct: endogenous in cells; host or cells: thioglycolate-elicited mouse peritoneal macrophages
T3 sequence (P55097 115-329): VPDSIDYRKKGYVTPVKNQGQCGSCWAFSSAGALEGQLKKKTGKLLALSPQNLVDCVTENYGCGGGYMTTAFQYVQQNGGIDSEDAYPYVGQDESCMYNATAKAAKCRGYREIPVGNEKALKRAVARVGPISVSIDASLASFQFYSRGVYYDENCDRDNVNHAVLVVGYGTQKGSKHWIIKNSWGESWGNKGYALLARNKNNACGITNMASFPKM
Description: as §4, §5, §6

[10] = test system: rat model of human glomerular disease; conditions: cited from earlier work

T1 sequence (P10605 80-333 limits assumed): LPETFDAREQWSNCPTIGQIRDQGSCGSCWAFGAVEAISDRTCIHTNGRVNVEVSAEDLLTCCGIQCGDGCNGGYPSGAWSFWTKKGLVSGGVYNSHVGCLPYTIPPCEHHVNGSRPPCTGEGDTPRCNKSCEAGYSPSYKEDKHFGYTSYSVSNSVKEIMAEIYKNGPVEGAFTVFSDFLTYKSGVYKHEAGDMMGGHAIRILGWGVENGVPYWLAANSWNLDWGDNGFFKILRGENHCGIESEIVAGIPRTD
T2 sequence (P06797 114-334): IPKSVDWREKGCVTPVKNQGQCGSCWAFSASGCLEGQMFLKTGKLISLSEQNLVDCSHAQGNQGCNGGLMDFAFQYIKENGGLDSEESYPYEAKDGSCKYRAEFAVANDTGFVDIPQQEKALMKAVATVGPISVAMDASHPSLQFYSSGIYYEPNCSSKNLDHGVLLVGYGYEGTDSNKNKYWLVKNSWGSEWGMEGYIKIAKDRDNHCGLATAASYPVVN

CN(C)C(=O)[C@H](Cc1ccccc1)NC(=O)[C@H]1O[C@@H]1C(=O)NCCc1ccccn1 (relative stereo) [CLIK 148, L-(+)-(2S, 3S)-N-[2-(2′-pyridinyl)-1-ethyl]-Na-amino-(L-phenylalaninedimethylamide)-trans-epoxysuccinamide]
accumulation of 50 kDa PPAR-γ [1]: blocking the accumulation | levels of 95 kDa IR β subunit and its precursor [2]: increased levels | cathepsin B activity (active site labeling) [3]: not | inhibition of adipogenesis / differentiation [4]: complete inhibition; also recorded: completely blocked | cathepsin L activity (active site labeling) [5]: completely inhibited | levels of IGF-IR β subunit and its precursor (the same as for IR) [6]: increased levels | inhibition of adipogenesis in 3T3-L1 cells [7]: inhibition of adipogenesis | accumulation of 50 kDa C/EBP-α [8]: blocking the accumulation | cathepsin K activity (active site labeling) [9]: not

CC(C)CCNC(=O)[C@H](CC(C)C)NC(=O)[C@H]1O[C@@H]1C(=O)O (relative stereo) [trans-epoxysuccinyl-L-leucylamido-(3-methyl)butane]
proteinuria [10]: significantly reduced
